{
  "source": "patent US20120010296A1",
  "about": "“TREATING VARIOUS DISORDERS WITH CATECHOL-O-METHYL-TRANSFERASE INHIBITORS” (priority 2009, published 2012)",
  "format_in_all_cases": "in vivo, human",
  "key": {"kleptomania": {"test_system": "kleptomania", "experiment": "Example 3: case report, treatment of kleptomania (K-SAS, stealing behavior)", "settings": "one patient", "text": "Patient was a married, college-educated person with no children. They presented for psychiatric evaluation for “out-of-control” shoplifting that had been going on since early adulthood. Although never arrested for their shoplifting, they reported stealing approximately 90% of the times when they went shopping. […] They denied wanting or needing the items and in fact usually discarded them in the trash when they returned home. They reported that when they initially stole items in early adulthood the act gave them a “rush” or a thrill. Over the years, they described the behavior as “automatic” and without awareness for the consequences.\nThe diagnosis of kleptomania was confirmed using the Structured Clinical Interview for Kleptomania. Patient also underwent a comprehensive psychiatric evaluation using the Structured Clinical Interview for DSM-IV (SCID-I and SCID-II). […] Severity of kleptomania was assessed using the Kleptomania Symptom Assessment Scale (K-SAS) at baseline and periodically through […] follow-up. The K-SAS score at baseline was 28 (moderate severity).\n(§1) Over a period of two years, patient underwent serial trials of several medications. […] “I have gone to stores several times without stealing anything.” After 6 weeks, the benefit seemed to wane and their dose was increased to 100 mg po bid. […] They have been maintained on that dose for 5 months without stealing. They report mild urges to steal when in a store but feels able to control their behavior. Patient's K-SAS score has consistently been 6-8 over the last few months."}, "[1]": {"test_system": "nicotine dependent problem gambling subjects", "experiment": "Change in cigarette smoking in nicotine dependent problem gambling subjects taking tolcapone", "settings": "10-Week Endpoint (n = 6); baseline 25.8 ± 11.1"}, "pathological gambling [2]": {"test_system": "pathological gambling", "experiment": "Example 1 / Tolcapone Study: cognitive tasks (IED set shift, SST) before and after treatment", "text": "(§2) The cognitive tasks require subjects to disengage responding from the previously correct dimension in favor of responding to a novel dimension. Failure on the task may be due to the inability of the individual to disengage from a previously rewarding process thus perseverating on the incorrect response pattern."}, "[3]": {"experiment": "Example 3: laboratory testing of liver aminotransferases every two weeks", "settings": "one patient", "description": "as §1"}, "[4]": {"test_system": "attention deficit disorder (ADD)", "experiment": "Example 4: case report, treatment of ADD", "settings": "one patient", "description": "Patient was a married, person, currently in nursing school. They have had life-long difficulties with organizing tasks, following through on instructions and completing tasks. Learning in classes and performing school work has been extremely difficult. Patient would tell each and every teacher that they have attention deficit disorder (ADD), they are slow to understand and that they need more time to complete examinations. Patient has been taking methylphenidate ([…]) 10 mg twice a day to cope with these difficulties. […] Patient said “I was able to answer 12 out of 12 questions, that was the first time for me.” After one week, patient increased tolcapone does to 100 mg twice a day. […] They found themself organizing future tasks in orderly manner and also completing the tasks mush more efficiently, something they just have not been able to do prior to now. Their spouse noticed this and commented this to them. […] Patient is much satisfied with the results of the tolcapone treatment. Follow-up interview two weeks post tolcapone 100 mg twice a day: “I got over my classes at 3:[…]/ I stayed '[…] just fired off this assignment. I met all objectives. I got 15 out of 15 points. This has never happened to me before. Prior to tolcapone, I would scramble, hodge-podge, . . . I would just give up. The whole thing is getting better and better. I feel that I can organize things better now.” “Look what my teacher wrote, 'very well organized'.” 30 out of 30, 27 out of 27 points! “I never got these assignments done. I can't explain it but this is phenomenal.” “I am sleeping better now, my anxiety has gone down, I have more energy now.” This is a patient who had been on methylphenidate 10 mg twice a day."}, "pathological gambling [5]": {"test_system": "pathological gambling", "experiment": "Example 2: tolcapone study in pathological gambling, primary and secondary measures", "text": "The effectiveness of COMT inhibitors to treat PG can be determined using known assessments, e.g., the Clinical Global Impression Scale (CGI), Yale Brown Obsessive Compulsive Scale Modified for Pathological Gambling (PG-YBOCS), the Gambling Symptom Assessment Scale (G-SAS), the Sheehan Disability Scale (SDS), the Hamilton Anxiety Rating Scale (HAM-A), the Hamilton Depression Rating Scale (HAM-D), the Perceived Stress Scale (PSS; used at baseline and study endpoint), and the Quality of Life Inventory (QOLI; used at baseline and study endpoint). In Example 2, twelve subjects have been enrolled with four of these individuals currently receiving tolcapone and yet to complete the study. […] In most open-label studies of pathological gambling, response rates are approximately 60-65%. Decrease in gambling symptoms was from a mean of 20.4 to 9.25 at endpoint using the PG-YBOCS. This compares to a mean decrease of 6 points on this same scale when used in treatment studies involving other medications."}, "pathological gambling [6]": {"test_system": "pathological gambling", "experiment": "Example 1: open-label tolcapone study in pathological gambling (PG-YBOCS)", "text": "The effectiveness of COMT inhibitors to treat PG can be determined using known assessments, e.g., the Clinical Global Impression Scale (CGI), Yale Brown Obsessive Compulsive Scale Modified for Pathological Gambling (PG-YBOCS), the Gambling Symptom Assessment Scale (G-SAS), the Sheehan Disability Scale (SDS), the Hamilton Anxiety Rating Scale (HAM-A), the Hamilton Depression Rating Scale (HAM-D), the Perceived Stress Scale (PSS; used at baseline and study endpoint), and the Quality of Life Inventory (QOLI; used at baseline and study endpoint). In example 1, six subjects have been enrolled in a study to determine the effects of administration of the COMT inhibitor tolcapone on gambling. Subjects receive 100 mg-300 mg of tolcapone by mouth per day for 8 weeks, which can be administered either once per day for the 100 mg dose, or multiple (e.g., 3) times per day for higher doses (e.g., 300 mg dose). Five of the 6 (83%) subjects have “responded” (i.e., greater than 35% on the primary outcome measure, the PG-YBOCS) to tolcapone. In most open-label studies of pathological gambling, response rates are approximately 65%. Decrease in gambling symptoms was from a mean of 20.4 to 8.0 at endpoint using the PG-YBOCS. This compares to a mean decrease of 6 points on this same scale when used in treatment studies involving other medications. The mean effective dose was 140 mg/day."}, "pathological gambling [7]": {"test_system": "pathological gambling", "experiment": "Example 2: performance on cognitive tasks (IDED, SST) in pathological gamblers treated with tolcapone", "text": "as §2, with “on the ED task may” for “on the task may”"}},
  "data": [
    {"smiles": "CC1(C)O[C@@H]2[C@@H](CO[C@@]3(COS(N)(=O)=O)OC(C)(C)O[C@@H]23)O1", "note": "[Topiramate, topiramate]", "values": [
      {"measurement": "K-SAS score (urges to steal)", "setting": "kleptomania; monotherapy, 12 weeks at 150 mg/day, baseline 28", "value": 21}
    ]},
    {"smiles": "Cc1ccc(C(=O)c2cc(O)c(O)c([N+](=O)[O-])c2)cc1", "note": "[tolcapone]", "values": [
      {"measurement": "Cigarettes smoked per day (mean ± SD)", "setting": "[1]", "value": "3.3 ± 8.2"},
      {"measurement": "IED Total errors (stage 6), ID shift, Mean ± SD at EOS", "setting": "pathological gambling [2]; EOS, baseline 0.5 ± 1", "value": "0 ± 0"},
      {"measurement": "SST Direction errors on stop and go trials, Mean ± SD at EOS", "setting": "pathological gambling [2]; EOS, baseline 2.75 ± 4.27", "value": "6.5 ± 11.03"},
      {"measurement": "IED Total errors (stage 8), ED shift, Mean ± SD at EOS", "setting": "pathological gambling [2]; EOS, baseline 6.75 ± 5.91", "value": "3.5 ± 4.51"},
      {"measurement": "IED Stages completed, Mean ± SD at EOS", "setting": "pathological gambling [2]; EOS, baseline 9 ± 0", "value": "9 ± 0"},
      {"measurement": "IED Total errors (adjusted), Mean ± SD at EOS", "setting": "pathological gambling [2]; EOS, baseline 12.75 ± 6.5", "value": "17 ± 7.16"},
      {"measurement": "IED Total errors, Mean ± SD at EOS", "setting": "pathological gambling [2]; EOS, baseline 12.75 ± 6.5", "value": "17 ± 7.16"},
      {"measurement": "SST Median correct RT on GO trials, Mean ± SD at EOS", "setting": "pathological gambling [2]; EOS, baseline 530.5 ± 132.91", "value": "529 ± 155.66"},
      {"measurement": "extradimensional set shift task (cognitive measures)", "setting": "pathological gambling [2]; Example 1", "value": "significant improvement"},
      {"measurement": "changes in alanine aminotransferase or aspartate aminotranferase", "setting": "[3]", "value": "no changes"},
      {"measurement": "ADD symptoms reported by the patient", "setting": "[4]; 100 mg in the morning, added to methylphenidate 10 mg twice a day", "value": "improved sense of well-being"},
      {"measurement": "ADD symptoms reported by the patient", "setting": "[4]; 100 mg twice a day", "value": "further improvement in their symptoms"},
      {"measurement": "side effects", "setting": "[4]; 100 mg twice a day", "value": "no side effects"},
      {"measurement": "attentional issues, compared with methylphenidate", "setting": "[4]; chose to stay on tolcapone instead of methylphenidate", "value": "works better for their attentional issues"},
      {"measurement": "stealing behavior", "setting": "kleptomania; 100 mg po bid, after 3 weeks on the higher dose, maintained for 5 months without stealing", "value": "no stealing behavior"},
      {"measurement": "K-SAS score", "setting": "kleptomania; 100 mg po bid, over the last few months, baseline 28 (moderate severity)", "value": "6-8"},
      {"measurement": "stealing behavior", "setting": "kleptomania; 100 mg/day monotherapy, after 3 weeks", "value": "significant reductions in stealing behavior"},
      {"measurement": "mean effective dose", "setting": "pathological gambling [5]; Example 2, pathological gambling, compared to 600 mg/day used for Parkinson's", "value": 141, "unit": "mg/day"},
      {"measurement": "PG-YBOCS mean at endpoint (decrease in gambling symptoms)", "setting": "pathological gambling [5]; Example 2, from a baseline mean of 20.4", "value": 9.25},
      {"measurement": "subjects who responded (greater than 35% on the primary outcome measure, the PG-YBOCS)", "setting": "pathological gambling [5]; Example 2, seven of 8 subjects who have completed the study", "value": 87.5, "unit": "%"},
      {"measurement": "CGI-Improvement (Investigator), mean (SD) at endpoint", "setting": "pathological gambling [5]; endpoint", "value": "1.88 (0.83)"},
      {"measurement": "CGI-Improvement (Patient), mean (SD) at endpoint", "setting": "pathological gambling [5]; endpoint", "value": "2.19 (1.13)"},
      {"measurement": "Clinical Global Impression Severity, mean (SD) at endpoint", "setting": "pathological gambling [5]; endpoint, baseline 4.38 (0.74), p-value 0.0098", "value": "3 (1.07)"},
      {"measurement": "HAM-A, mean (SD) at endpoint", "setting": "pathological gambling [5]; endpoint, baseline 8.88 (3.14), p-value 0.052", "value": "5.63 (2.97)"},
      {"measurement": "HAM-D, mean (SD) at endpoint", "setting": "pathological gambling [5]; endpoint, baseline 9 (2.67), p-value 0.033", "value": "5.63 (3.02)"},
      {"measurement": "PG-YBOCS behavior Subscale score, mean (SD) at endpoint", "setting": "pathological gambling [5]; endpoint, baseline 9.63 (3.2), p-value 0.0003", "value": "3.63 (3.96)"},
      {"measurement": "PG-YBOCS urges/thought subscale score, mean (SD) at endpoint", "setting": "pathological gambling [5]; endpoint, baseline 10.88 (2.23), p-value 0.0003", "value": "5.38 (2.33)"},
      {"measurement": "Sheehan Disability Scale total score, mean (SD) at endpoint", "setting": "pathological gambling [5]; endpoint, baseline 16.75 (6.84), p-value 0.003", "value": "5.38 (5.90)"},
      {"measurement": "PG-YBOCS total score, mean (SD) at endpoint", "setting": "pathological gambling [5]; endpoint, baseline 20.5 (3.38), p-value 0.0002", "value": "9.25 (5.3)"},
      {"measurement": "G-SAS total score, mean (SD) at endpoint", "setting": "pathological gambling [5]; endpoint, baseline 27.13 (7.54), p-value 0.045", "value": "18.63 (7.91)"},
      {"measurement": "mean effective dose", "setting": "pathological gambling [6]; Example 1, pathological gambling", "value": 140, "unit": "mg/day"},
      {"measurement": "subjects who responded (greater than 35% on the primary outcome measure, the PG-YBOCS)", "setting": "pathological gambling [6]; Example 1, 100 mg-300 mg per day by mouth for 8 weeks, five of the 6 subjects", "value": 83, "unit": "%"},
      {"measurement": "PG-YBOCS mean at endpoint (decrease in gambling symptoms)", "setting": "pathological gambling [6]; Example 1, from a baseline mean of 20.4", "value": 8.0},
      {"measurement": "PG-YBOCS, Mean ± SD at EOS", "setting": "pathological gambling [6]; whole group analysis, after treatment (EOS), baseline 21.5 + 3.11", "value": "10.25 ± 6.18"},
      {"measurement": "extradimensional set shift task (cognitive measures)", "setting": "pathological gambling [7]; Example 2, neurocognitive results", "value": "significant improvement"},
      {"measurement": "SST directional errors at endpoint", "setting": "pathological gambling [7]; endpoint, baseline 2 ± 3.07", "value": "4.71 ± 8.24"},
      {"measurement": "IDED Stages completed at endpoint", "setting": "pathological gambling [7]; endpoint, baseline 8.5 ± 0.92", "value": "8.86 ± 0.38"},
      {"measurement": "IDED total errors (adjusted) at endpoint", "setting": "pathological gambling [7]; endpoint, baseline 26.38 ± 21.84", "value": "20.14 ± 11.77"},
      {"measurement": "SST SSRT at endpoint", "setting": "pathological gambling [7]; endpoint, baseline 149.8 ± 41.57", "value": "161.37 ± 29.11"},
      {"measurement": "SST median go reaction time at endpoint", "setting": "pathological gambling [7]; endpoint, baseline 470.5 ± 111.67, in ms (unit assumed)", "value": "476.64 ± 138.11"}
    ]}
  ]
}
